Tests used:
[1] = target: KRas WT (Homo sapiens, UniProt P01116); experiment: KRas binding assay (TR-FRET displacement), KRas WT; conditions: single point, 10 nM compound
[2] = target: KRas G12A (Homo sapiens, UniProt P01116, G12A); type: binding; conditions: single point, 10 nM compound, read-out: Binding to KRas (% inhibition at 10 nM) G12A
[3] = target: KRas G12C (Homo sapiens, UniProt P01116, G12C); type: binding; conditions: single point, 10 nM compound, read-out: Binding to KRas (% inhibition at 10 nM) G12C
Chain of KRas G12C (P01116 1-169 isoform P01116-2 G12C): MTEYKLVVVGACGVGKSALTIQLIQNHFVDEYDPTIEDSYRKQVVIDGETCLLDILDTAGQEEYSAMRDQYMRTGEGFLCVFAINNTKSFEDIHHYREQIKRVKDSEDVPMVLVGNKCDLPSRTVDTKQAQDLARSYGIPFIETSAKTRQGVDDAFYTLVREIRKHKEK

[4] = target: KRas G12S (Homo sapiens, UniProt P01116, G12S); type: binding; conditions: single point, 10 nM compound, read-out: Binding to KRas (% inhibition at 10 nM) G12S
Chain of KRas G12S (P01116 1-169 isoform P01116-2 G12S): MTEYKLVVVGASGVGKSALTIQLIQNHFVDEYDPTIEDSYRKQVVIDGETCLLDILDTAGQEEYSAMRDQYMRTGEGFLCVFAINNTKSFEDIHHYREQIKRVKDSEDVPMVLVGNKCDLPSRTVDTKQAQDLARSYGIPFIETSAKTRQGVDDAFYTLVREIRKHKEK

[5] = target: KRas G13D (Homo sapiens, UniProt P01116, G13D); type: binding; conditions: single point, 10 nM compound, read-out: Binding to KRas (% inhibition at 10 nM) G13D
Chain of KRas G13D (P01116 1-169 isoform P01116-2 G13D): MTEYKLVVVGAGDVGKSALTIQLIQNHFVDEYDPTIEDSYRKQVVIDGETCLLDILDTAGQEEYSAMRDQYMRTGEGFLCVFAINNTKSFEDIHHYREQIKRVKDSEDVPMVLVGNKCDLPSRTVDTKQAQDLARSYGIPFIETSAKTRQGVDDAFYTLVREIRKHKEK

[6] = target: KRas Q61H (Homo sapiens, UniProt P01116, Q61H); experiment: KRas binding assay (TR-FRET displacement), KRas Q61H; conditions: single point, 10 nM compound
Chain of KRas Q61H (P01116 1-169 isoform P01116-2 Q61H): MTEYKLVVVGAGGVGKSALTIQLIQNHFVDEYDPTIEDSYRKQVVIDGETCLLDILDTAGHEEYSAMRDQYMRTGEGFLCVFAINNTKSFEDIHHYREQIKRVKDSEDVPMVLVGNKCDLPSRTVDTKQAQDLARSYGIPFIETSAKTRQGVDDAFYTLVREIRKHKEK

[7] = system: MKN1 cells; experiment: Inhibition of KRas-mediated phosphorylation of ERK (Cisbio HTRF pERK), MKN1 cells; type: cell-based; conditions: Homo sapiens, MKN-1, 3 hour compound incubation, Cisbio pERK HTRF
Procedure, shortened: (§1)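 Growth medium is RPMI with 10% FBS, and each well receives 6,000 cells on the first day of the protocol.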

[8] = system: PSN1 cells; experiment: Inhibition of KRas-mediated phosphorylation of ERK (Cisbio HTRF pERK), PSN1 cells; type: cell-based; conditions: Homo sapiens, PSN1, 3 h, 3 hour compound incubation, Cisbio pERK HTRF
Procedure, shortened: as §1

[9] = system: ASPC1 cells; experiment: Inhibition of KRas-mediated phosphorylation of ERK (Cisbio HTRF pERK), ASPC1 cells; type: cell-based; conditions: Homo sapiens, AsPC-1 cells; for IC50: ASPC1, 3 h, 3 hr compound incubation, Cisbio pERK HTRF; for inhibition at 0.1 µM: ASPC1, single point at 100 nM, 3 hrs compound incubation
[10] = system: H727 cells; experiment: Inhibition of KRas-mediated phosphorylation of ERK (Cisbio HTRF pERK), H727 cells; type: cell-based; conditions: Homo sapiens; for IC50: NCI-H727, 3 h, 3 hr compound incubation, Cisbio pERK HTRF; for inhibition at 0.1 µM: NCI-H727, single point at 100 nM, 3 hrs compound incubation
[11] = system: A549 cells; experiment: Inhibition of KRas-mediated phosphorylation of ERK (Cisbio HTRF pERK), A549 cells; type: cell-based; conditions: Homo sapiens; for IC50: A549, 3 h, 3 hr compound incubation, Cisbio pERK HTRF; for inhibition at 0.1 µM: single point at 100 nM, 3 hrs compound incubation
[12] = system: H460 cells; experiment: Inhibition of KRas-mediated phosphorylation of ERK (Cisbio HTRF pERK), H460 cells; type: cell-based; conditions: Homo sapiens; for IC50: NCI-H460, 3 h, 3 hr compound incubation, Cisbio pERK HTRF; for inhibition at 0.1 µM: NCI-H460, single point at 100 nM, 3 hrs compound incubation
[13] = system: HCT116 cells; experiment: Inhibition of KRas-mediated phosphorylation of ERK (Cisbio HTRF pERK), HCT116 cells; type: cell-based; conditions: Homo sapiens; for IC50: HCT-116, 3 h, 3 hr compound incubation, Cisbio pERK HTRF; for inhibition at 0.1 µM: HCT-116, single point at 100 nM, 3 hrs compound incubation
[14] = system: H358 cells; experiment: Inhibition of KRas-mediated phosphorylation of ERK (Cisbio HTRF pERK), H358 cells; type: cell-based; conditions: Homo sapiens; for IC50: NCI-H358, 3 h, 3 hr compound incubation, Cisbio pERK HTRF; for inhibition at 0.1 µM: NCI-H358, single point at 100 nM, 3 hrs compound incubation
[15] = target: KRas G12D (Homo sapiens, UniProt P01116, G12D); experiment: biochemical; conditions: Binding to KRas (IC50 nM) G12D, TR-FRET displacement, KRas G12D
Chain of KRas G12D (P01116 1-169 isoform P01116-2 G12D): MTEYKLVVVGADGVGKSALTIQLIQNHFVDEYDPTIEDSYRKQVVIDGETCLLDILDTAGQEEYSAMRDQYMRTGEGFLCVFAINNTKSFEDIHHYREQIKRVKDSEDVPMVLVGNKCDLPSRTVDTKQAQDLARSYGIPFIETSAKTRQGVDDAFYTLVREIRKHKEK

[16] = target: KRas G12R (Homo sapiens, UniProt P01116, G12R); experiment: biochemical; conditions: Binding to KRas (IC50 nM) G12R, TR-FRET displacement, KRas G12R
Chain of KRas G12R (P01116 1-169 isoform P01116-2 G12R): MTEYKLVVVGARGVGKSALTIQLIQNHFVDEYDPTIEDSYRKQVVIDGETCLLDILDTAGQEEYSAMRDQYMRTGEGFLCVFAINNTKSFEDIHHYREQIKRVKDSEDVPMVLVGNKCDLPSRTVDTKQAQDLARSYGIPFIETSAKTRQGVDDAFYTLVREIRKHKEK

[17] = target: KRas G12V (Homo sapiens, UniProt P01116, G12V); experiment: biochemical; conditions: Binding to KRas (IC50 nM) G12V, TR-FRET displacement, KRas G12V
Chain of KRas G12V (P01116 1-169 isoform P01116-2 G12V): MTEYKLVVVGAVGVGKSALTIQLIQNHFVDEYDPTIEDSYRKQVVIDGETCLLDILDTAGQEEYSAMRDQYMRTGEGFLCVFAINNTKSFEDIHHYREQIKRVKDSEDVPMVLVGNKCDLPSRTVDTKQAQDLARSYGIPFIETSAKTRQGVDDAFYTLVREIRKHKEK

Chain of KRas WT (P01116 1-169 isoform P01116-2): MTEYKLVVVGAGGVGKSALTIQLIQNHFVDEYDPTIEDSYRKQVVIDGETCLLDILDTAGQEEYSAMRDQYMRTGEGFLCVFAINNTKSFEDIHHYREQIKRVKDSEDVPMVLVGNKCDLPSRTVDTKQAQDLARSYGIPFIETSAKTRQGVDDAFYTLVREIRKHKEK
Chain of KRas G12A (P01116 1-169 isoform P01116-2 G12A): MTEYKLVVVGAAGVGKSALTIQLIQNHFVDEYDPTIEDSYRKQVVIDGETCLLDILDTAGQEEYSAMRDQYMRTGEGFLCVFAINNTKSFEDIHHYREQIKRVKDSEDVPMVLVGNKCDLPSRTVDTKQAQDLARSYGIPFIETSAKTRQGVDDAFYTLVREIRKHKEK

inhibition at 0.01 µM [1]	inhibition at 0.01 µM [2]	inhibition at 0.01 µM [3]	inhibition at 0.01 µM [4]	inhibition at 0.01 µM [5]	inhibition at 0.01 µM [6]	IC50 [7]	IC50 [8]	IC50 [9]	IC50 [10]	IC50 [11]	IC50 [12]	IC50 [13]	IC50 [14]	IC50 [15]	IC50 [16]	SMILES	inhibition at 0.1 µM [11]	inhibition at 0.1 µM [12]	inhibition at 0.1 µM [13]	inhibition at 0.1 µM [14]	other results
98%	97%	99%	99%	98%	98%	29.2 nM	> 10000 nM	2 nM	8 nM	53 nM	102 nM	151 nM	17 nM	< 2 nM	< 2 nM	CCc1c(F)ccc2cc(O)cc(N3CCc4c(nc(OC[C@@]56CCCN5C[C@H](F)C6)nc4N4CCCn5nc(C(=O)N6CC7CCC6CN7C)cc5C4)C3)c12 (stereo partly drawn) [Example 260, (5-(7-(8-ethyl-7-fluoro-3-hydroxynaphthalen-1-yl)-2-(((2R,7aS)-2-fluorohexahydro-1H-pyrrolizin-7a-yl)methoxy)-5,6,7,8-tetrahydropyrido[3,4-d]pyrimidin-4-yl)-5,6,7,8-tetrahydro-4H-pyrazolo[1,5-a][1,4]diazepin-2-yl)(5-methyl-2,5-diazabicyclo[2.2.2]octan-2-yl)methanone]	73%	38%	29%	97%	inhibition at 0.1 µM [9]: 98%; inhibition at 0.1 µM [10]: 54%; IC50 [17]: < 2 nM
96%	96%	99%	99%	96%	96%	3.9 nM	2400 nM	2 nM	4 nM	8 nM	23 nM	74 nM	2 nM	< 2 nM	< 2 nM	CCc1c(F)ccc2cc(O)cc(N3CCc4c(nc(OC[C@@]56CCCN5C[C@H](F)C6)nc4N4CCCn5nc(C(=O)N6CC7CC6C7)cc5C4)C3)c12 [Example 342, 2-azabicyclo[2.1.1]hexan-2-yl(5-(7-(8-ethyl-7-fluoro-3-hydroxynaphthalen-1-yl)-2-(((2R,7aS)-2-fluorohexahydro-1H-pyrrolizin-7a-yl)methoxy)-5,6,7,8-tetrahydropyrido[3,4-d]pyrimidin-4-yl)-5,6,7,8-tetrahydro-4H-pyrazolo[1,5-a][1,4]diazepin-2-yl)methanone]	87%	86%	59%	100%	inhibition at 0.1 µM [9]: 96%; inhibition at 0.1 µM [10]: 80%; IC50 [17]: < 2 nM
92%	95%	99%	99%	91%	92%	15.9 nM	6010 nM	3 nM	8 nM	18 nM	48 nM	224 nM	3 nM	< 2 nM	< 2 nM	CCc1c(F)ccc2cc(O)cc(N3CCc4c(nc(OC[C@@]56CCCN5C[C@H](F)C6)nc4N4CCCn5nc(C(=O)NC6CC6)c(C)c5C4)C3)c12 [Example 293, N-cyclopropyl-5-(7-(8-ethyl-7-fluoro-3-hydroxynaphthalen-1-yl)-2-(((2R,7aS)-2-fluorohexahydro-1H-pyrrolizin-7a-yl)methoxy)-5,6,7,8-tetrahydropyrido[3,4-d]pyrimidin-4-yl)-3-methyl-5,6,7,8-tetrahydro-4H-pyrazolo[1,5-a][1,4]diazepine-2-carboxamide]	86%	66%	40%	95%	IC50 [17]: < 2 nM
